Where two headings read alike, the source gives them in different places.
Tests used:
MDR1 = biological target: T1, MDR1 (Homo sapiens, UniProt P08183); assay: Vesicular transport inhibition assay, MDR1 membrane vesicles; assay type: biochemical; conditions: for Igut/IC50 ratio: MDR1, Igut = dose/250 mL, 500 mg dose of UT extract, ICH M12 cut-off 10; for IC50: oxindole alkaloids, substrate NMQ, read-out: IC50 (95% CI of IC50)
T1 construct: The cDNA encoding respective transporters were synthetized and cloned by GenScript; host or cells: HEK293 (lentiviral transduction), membrane vesicles
T1 sequence (P08183 whole entry): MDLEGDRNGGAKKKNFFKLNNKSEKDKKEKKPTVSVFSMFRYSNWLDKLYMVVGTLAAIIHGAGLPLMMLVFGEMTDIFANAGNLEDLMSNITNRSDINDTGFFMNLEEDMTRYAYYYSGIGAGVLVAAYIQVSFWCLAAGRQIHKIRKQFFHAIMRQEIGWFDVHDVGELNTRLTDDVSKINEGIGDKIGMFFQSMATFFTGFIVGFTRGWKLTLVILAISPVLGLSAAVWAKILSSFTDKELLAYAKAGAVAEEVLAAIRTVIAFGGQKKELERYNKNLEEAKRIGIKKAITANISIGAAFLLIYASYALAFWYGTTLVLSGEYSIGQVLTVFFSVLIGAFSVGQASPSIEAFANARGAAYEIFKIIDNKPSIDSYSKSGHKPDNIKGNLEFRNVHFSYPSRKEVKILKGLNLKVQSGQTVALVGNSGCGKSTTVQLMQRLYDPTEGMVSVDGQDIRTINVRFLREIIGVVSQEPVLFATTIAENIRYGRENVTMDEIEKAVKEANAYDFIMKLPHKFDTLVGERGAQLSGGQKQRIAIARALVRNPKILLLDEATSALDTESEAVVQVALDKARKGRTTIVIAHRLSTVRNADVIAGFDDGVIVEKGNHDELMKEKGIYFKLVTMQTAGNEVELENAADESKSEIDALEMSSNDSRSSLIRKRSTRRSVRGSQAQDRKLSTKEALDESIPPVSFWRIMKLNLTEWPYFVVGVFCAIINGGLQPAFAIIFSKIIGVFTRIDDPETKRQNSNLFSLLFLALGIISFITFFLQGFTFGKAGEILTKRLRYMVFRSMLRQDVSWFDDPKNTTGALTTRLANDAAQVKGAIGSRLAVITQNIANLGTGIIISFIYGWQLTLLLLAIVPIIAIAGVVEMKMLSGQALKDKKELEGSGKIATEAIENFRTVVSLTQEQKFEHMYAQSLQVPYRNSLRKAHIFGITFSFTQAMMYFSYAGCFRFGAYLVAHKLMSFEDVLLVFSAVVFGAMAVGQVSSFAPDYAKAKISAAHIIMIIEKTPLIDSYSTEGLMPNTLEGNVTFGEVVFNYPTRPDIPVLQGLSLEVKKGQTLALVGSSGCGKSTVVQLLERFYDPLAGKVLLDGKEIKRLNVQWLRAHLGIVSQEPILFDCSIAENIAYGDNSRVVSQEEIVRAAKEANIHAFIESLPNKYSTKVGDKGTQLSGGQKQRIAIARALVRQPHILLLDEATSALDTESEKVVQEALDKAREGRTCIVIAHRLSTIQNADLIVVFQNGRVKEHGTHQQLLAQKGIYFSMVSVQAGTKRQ
Excerpt: (§1) The human embryonic kidney 293 (HEK293) cell line was purchased from Invitrogen/ThermoFisher (Waltham, MA, USA). Madin–Darby canine kidney II (MDCKII) wild type cells were obtained from the European Collection of Authenticated Cell Cultures (ECACC catalog no. 00062107). HEK293 cells overexpressing the human uptake OATP1B1 (NCBI Reference Sequence: NM_006446.4), OATP1B3 (NM_019844), OATP2B1 (NM_007256), OATP1A2 (NM_134431), OAT1-3 (BC033682.1; NM_006672.3; BC022387), OCT1-3 (BC126364.1; NM_003058; NM_021977), OCTN1 (NM_003059.3), NTCP (NM_003049.3), MATE1 (NM_018242.3), MATE2K (NM_001099646.2), ENT4 (NM_001040661.1), SGLT2 (AJ133127.1), ASCT1/2 (NM_003038.5; NM_005628.3), LAT1/2 (NM_003486.6; NM_012244.4), and THTR1/2 (NM_006996; NM_025243) and mock and human efflux BCRP (NM_004827.2), BSEP (NM_003742.2), MDR1 (NM_000927.4), and MRP1-5 (NM_004996; NM_000392.4; BC137347.1; NM_005845.4; NM_005688.2) transporters as well as MDCKII overexpressing human ENT1/2 (NM_001078177; NM_001532.2) and URAT1 (BC053348) transporters were created by lentiviral transduction. The cDNA encoding respective transporters were synthetized and cloned by GenScript (Piscataway, NJ, USA). The production of lentivirus supernatants, the transduction of the cells, cloning, functional characterization, and validation were performed by Charles River Laboratories Hungary Kft. (Budapest, Hungary).
(§2) Membrane vesicles were prepared from ABC transporter-overexpressing HEK293 cells by Charles River Laboratories Hungary Kft. as described previously in detail. Vesicles were frozen in liquid nitrogen and stored at −80 °C.
(§3) Vesicular transport inhibition assays were performed using a rapid filtration technique. In brief, the appropriate amount of the protein of each membrane vesicle was mixed with either the extract or isopteropodine, mitraphylline, or uncarine D at one concentration or with their half dilution series from 150 µg/mL or from 100 µM, the suitable transporter substrate, and the assay buffer on ice. Reaction mixtures were preincubated for 15 min at 37 °C with shaking at 250 rpm. Following preincubation, 4 mM Mg-ATP or AMP was added and incubated according to Table S3. Vesicular transport was terminated by adding an ice-cold washing buffer, and the reaction mix was transferred to a MSFBN6B10 filter plate (Merck) for filtration. The filter plates were then dried at 40 °C for 4 h, and radiolabeled substrates retained in the vesicles were detected by liquid scintillation counting as described above. For fluorescent substrates, accumulation was measured with a Clariostar^plus microplate reader (BMG Labtech GmbH, Ortenberg, Germany).
(§4) The transporter-mediated uptake and ATP-dependent transport were determined by subtracting the activity of the control cell/transporter abundant-membrane in the presence of AMP from the activity of the transporter-overexpressing cell/transporter-abundant membrane in the presence of ATP. The relative transporter-specific accumulation was expressed as the percent of DMSO activity. The results were presented as the mean ± SEM from 3 parallels. More than a 20% reduction in transport activity was considered as inhibition. For the IC50 determination, dose–response curves were fitted using a 4-parameter nonlinear model in GraphPad Prism version 9.0. Confidence intervals (CIs) of 95% were also determined.
(§5) Table S3 – Vesicular transport inhibition assay details.
These parameters were set during previous validations. TC: taurocholic acid, E3S: estrone 3 -sulfate,
NMQ: N-methyl-quinidine, E217βG: β-Estradiol 17-(β-D-glucuronide), DHEAS:
Dehydroepiandrosterone sulfate, CDCF: 5(6)-Carboxy-2',7-dichlorofluorescein B.
Parental Transporter Incubation Substrate Substrate µg Incubation
cell time (min) concentration membrane/ temperature

BCRP = biological target: T2, BCRP (Homo sapiens, UniProt Q9UNQ0); assay: Vesicular transport inhibition assay, BCRP membrane vesicles; assay type: biochemical; conditions: for Igut/IC50 ratio: BCRP, Igut = dose/250 mL, 500 mg dose of UT extract, ICH M12 cut-off 10; for IC50: oxindole alkaloids, substrate E3S, read-out: IC50 (95% CI of IC50)
T2 construct: The cDNA encoding respective transporters were synthetized and cloned by GenScript; host or cells: HEK293 (lentiviral transduction), membrane vesicles
T2 sequence (Q9UNQ0 1-655): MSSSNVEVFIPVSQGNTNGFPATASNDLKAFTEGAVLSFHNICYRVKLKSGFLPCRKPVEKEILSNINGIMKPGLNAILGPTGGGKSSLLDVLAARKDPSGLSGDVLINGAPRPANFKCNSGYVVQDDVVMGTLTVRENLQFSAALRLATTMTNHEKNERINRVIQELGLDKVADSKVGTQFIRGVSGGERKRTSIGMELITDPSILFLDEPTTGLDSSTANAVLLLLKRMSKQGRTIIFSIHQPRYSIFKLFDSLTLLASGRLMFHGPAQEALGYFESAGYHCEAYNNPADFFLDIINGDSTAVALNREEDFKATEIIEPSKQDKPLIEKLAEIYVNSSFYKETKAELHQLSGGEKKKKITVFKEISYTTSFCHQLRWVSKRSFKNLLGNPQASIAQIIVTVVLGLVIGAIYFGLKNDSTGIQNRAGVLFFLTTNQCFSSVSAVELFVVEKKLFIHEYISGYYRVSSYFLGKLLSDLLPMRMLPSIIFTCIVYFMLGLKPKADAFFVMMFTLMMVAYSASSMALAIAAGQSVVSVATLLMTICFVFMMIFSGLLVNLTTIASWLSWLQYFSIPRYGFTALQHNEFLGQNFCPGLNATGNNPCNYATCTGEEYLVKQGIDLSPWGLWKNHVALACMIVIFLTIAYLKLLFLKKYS
Excerpt: as §1, §2, §3, §4, §5
These parameters were set during previous validations. TC: taurocholic acid, E3S: estrone 3 -sulfate, […]

SMILES	Igut/IC50 ratio (MDR1)	transporter-mediated substrate accumulation (MDR1; in the presence of the alkaloid (100 µM, Figure 4))	IC50 (MDR1; listed as Mitraphylline) [µM]	IC50 (MDR1) [µM]	Igut/IC50 ratio (BCRP)	inhibitory effect on transporter-specific transport (MDR1; 100 µM alkaloid)	Igut/IC50 ratio (MDR1; listed as Isopteropodine)	Igut/IC50 ratio (BCRP; listed as Isopteropodine)	IC50 (BCRP; listed as Isopteropodine) [µM]	IC50 (BCRP) [µM]
COC(=O)C1=CO[C@@H](C)[C@H]2CN3CC[C@]4(C(=O)Nc5ccccc54)[C@@H]3C[C@H]12 [mitraphylline]	< 10	below 50%	28.3	28.3	< 10					
COC(=O)C1=CO[C@@H](C)[C@@H]2CN3CC[C@@]4(C(=O)Nc5ccccc54)[C@@H]3C[C@H]12 [isopteropodine]	< 10			28.2	< 10	significantly inhibited	0.82	0.42	54.6	54.6

— paper PMC11597817, “Modulation of Multispecific Transporters by Uncaria tomentosa Extract and Its Major Phytoconstituents” (Pharmaceutics, 2024)
